Results on one compound are retold here after patent US20220265646A1, “PIEZO AGONISTS FOR PREVENTING OR REVERTING ABNORMAL AMYLOID DEPOSITION” (ITÄ-SUOMEN YLIOPISTO, priority 2019, published 2022).

The target in the test is T1, native Piezo1Rs (Homo sapiens, UniProt Q92508).
T1 construct: endogenous in cells; host or cells: human iPSC-derived microglia
The experiment in a line: Calcium imaging of Yoda1-evoked Ca2+ influx in hiPSC-derived microglia. The class given is cell-based. The following applies: 50 μM Yoda1, control hiPSC microglia pre-incubated 15 min in BS, n=6. As for the experimental part:
To study the calcium influx evoked by native Piezo1 Rs expressed in microglia cells the present inventors used short Yoda1 applications (2 s, 50 μM if not otherwise specified). For this purpose, human IPSO derived microglia cells and SV-40 (immortalized human microglia) cells were seeded on 7 mm cover slips 1 day prior to the imaging experiment. Cells were loaded with the calcium-sensitive fluorescent dye Fluo-4AM (5 μM) for 30 min at 37° C. Followed by wash-incubation for 15 min in Ab 20 μM, 50 μM GdCI and basic solution (BS) as a control at 37° C. The basic solution containing the following (BS, in mM): 2.5 KCl, 152 NaCl, 10 glucose, 2 CaCl2, and 10 HEPES at pH 7.4. Fluorescence was visualized using monochromatic light source (TILL Photonics GmbH) using Ex/Im 494/[…] and a CCD camera (SensiCam). Chemicals were applied using a fast perfusion system (RSC-200, BioLogic Science). To quantify the difference in the amplitude of calcium transients, the ratio values were normalized by subtracting a baseline and further divided by the amplitude of the calcium transient to the 2 sec application of the ionomycin. Data were pre-analyzed offline using the FEI offline analysis (TILL Photonics), and further analysis was automatized using MatLab. Quantitative data were expressed as means±SEM unless otherwise stated. Number of experiments is indicated by n. Significance assessed with the ANOVA test or Mann-Whitney t test for non-parametric data. Statistically significant differences were set at*p<0.05 and **p<0.01.
Differentiation of microglia. Differentiation of microglia was carried out as previously described with minor modifications (Abud et al., 2017). Shortly, on DO, iPSCs were dissociated to single cells with 0.5 mM EDTA or Accutase and were replated at a density of 6-,000-16,000 cells/cm2 on Matrigel in E8, 0.5% penicillin/streptomycin (P/S, 50 IU/50 […]), 5 ng/ml BMP4, 25 ng/ml activin a (both from Peprotech or Miltenyi Biotec), 1 μM CHIR 99021 (Axon or Stem Cell Technologies) and 10 μM Y-27632 to induce mesodermal differentiation. […]

T1 sequence (Q92508 whole entry): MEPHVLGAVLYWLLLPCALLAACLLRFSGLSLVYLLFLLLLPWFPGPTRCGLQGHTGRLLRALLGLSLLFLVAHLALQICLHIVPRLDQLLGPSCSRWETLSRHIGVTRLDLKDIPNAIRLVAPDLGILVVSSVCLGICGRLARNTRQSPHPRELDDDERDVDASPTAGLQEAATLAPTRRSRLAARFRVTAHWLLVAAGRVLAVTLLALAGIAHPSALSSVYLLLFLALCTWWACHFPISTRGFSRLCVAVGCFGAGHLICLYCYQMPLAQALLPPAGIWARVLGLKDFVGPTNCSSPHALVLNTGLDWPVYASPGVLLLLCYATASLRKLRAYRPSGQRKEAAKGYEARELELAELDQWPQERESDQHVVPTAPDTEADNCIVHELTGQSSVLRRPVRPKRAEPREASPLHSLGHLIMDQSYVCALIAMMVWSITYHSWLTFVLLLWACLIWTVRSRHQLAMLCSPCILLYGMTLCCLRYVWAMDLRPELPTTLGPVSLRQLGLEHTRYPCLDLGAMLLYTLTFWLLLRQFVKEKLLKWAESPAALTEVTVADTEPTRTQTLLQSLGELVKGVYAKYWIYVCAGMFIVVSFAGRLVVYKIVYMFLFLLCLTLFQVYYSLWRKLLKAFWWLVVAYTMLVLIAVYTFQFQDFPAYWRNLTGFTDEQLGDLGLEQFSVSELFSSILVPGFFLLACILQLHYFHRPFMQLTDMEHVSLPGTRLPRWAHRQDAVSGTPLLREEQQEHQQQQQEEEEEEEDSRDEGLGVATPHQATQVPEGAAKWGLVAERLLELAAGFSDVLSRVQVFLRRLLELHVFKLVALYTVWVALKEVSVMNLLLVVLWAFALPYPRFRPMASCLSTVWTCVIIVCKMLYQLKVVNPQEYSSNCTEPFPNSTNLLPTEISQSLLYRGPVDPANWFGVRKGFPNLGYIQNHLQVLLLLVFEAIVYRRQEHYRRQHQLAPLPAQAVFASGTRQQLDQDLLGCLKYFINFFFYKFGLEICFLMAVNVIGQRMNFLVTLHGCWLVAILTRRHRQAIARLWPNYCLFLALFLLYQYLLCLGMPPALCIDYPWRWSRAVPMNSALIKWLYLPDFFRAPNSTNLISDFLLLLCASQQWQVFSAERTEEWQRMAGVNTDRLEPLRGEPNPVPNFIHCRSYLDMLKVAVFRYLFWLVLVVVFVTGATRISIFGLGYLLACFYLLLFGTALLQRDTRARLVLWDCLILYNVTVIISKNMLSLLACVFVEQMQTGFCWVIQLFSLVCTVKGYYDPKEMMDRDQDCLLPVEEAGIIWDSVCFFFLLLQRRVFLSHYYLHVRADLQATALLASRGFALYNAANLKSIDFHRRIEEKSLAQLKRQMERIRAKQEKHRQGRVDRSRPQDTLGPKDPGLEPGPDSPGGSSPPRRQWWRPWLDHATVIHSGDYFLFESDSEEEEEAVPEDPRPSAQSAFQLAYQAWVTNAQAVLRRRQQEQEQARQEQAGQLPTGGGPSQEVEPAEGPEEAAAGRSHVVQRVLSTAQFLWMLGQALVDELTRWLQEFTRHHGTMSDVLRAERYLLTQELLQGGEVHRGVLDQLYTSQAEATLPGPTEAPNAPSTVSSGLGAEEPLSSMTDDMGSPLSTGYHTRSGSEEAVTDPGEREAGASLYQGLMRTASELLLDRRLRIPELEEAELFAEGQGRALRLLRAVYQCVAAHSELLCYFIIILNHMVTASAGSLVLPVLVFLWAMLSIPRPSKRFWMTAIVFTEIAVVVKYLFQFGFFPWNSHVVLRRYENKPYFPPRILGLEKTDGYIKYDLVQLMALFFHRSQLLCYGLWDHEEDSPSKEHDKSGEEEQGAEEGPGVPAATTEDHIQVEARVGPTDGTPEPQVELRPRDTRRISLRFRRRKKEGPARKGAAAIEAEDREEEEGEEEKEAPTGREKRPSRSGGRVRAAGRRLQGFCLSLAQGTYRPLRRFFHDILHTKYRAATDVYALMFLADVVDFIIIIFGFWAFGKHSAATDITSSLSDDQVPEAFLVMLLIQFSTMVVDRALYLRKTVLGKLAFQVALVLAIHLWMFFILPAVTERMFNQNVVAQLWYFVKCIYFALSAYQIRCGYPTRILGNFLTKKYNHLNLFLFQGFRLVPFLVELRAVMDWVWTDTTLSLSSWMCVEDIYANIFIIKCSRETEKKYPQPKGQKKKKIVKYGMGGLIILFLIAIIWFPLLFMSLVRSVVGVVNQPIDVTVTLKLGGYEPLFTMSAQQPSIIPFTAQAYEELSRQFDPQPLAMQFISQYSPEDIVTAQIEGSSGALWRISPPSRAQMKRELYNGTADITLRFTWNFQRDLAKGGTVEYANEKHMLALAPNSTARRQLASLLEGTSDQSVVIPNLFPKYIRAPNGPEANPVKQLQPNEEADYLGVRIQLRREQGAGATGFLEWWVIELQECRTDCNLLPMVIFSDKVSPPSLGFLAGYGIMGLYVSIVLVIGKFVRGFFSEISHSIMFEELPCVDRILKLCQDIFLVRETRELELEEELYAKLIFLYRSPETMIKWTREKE

Regarding `Clc1cccc(Cl)c1CSc1nnc(-c2cnccn2)s1` [Yoda1], the “Ca2+ transients evoked by Yoda1 short (2 s) application, amplitude normalized to ionomycin” value is on record as 1.15±0.36.
